“Also recorded” adds a separate entry of the source. One block for each compound: values may come before it. Ends that are not written are not given here.
Columns and labels:
[1] = target: T1, QC (Homo sapiens, UniProt Q16769); test: Reactivation of inactivated human QC with metal ions; assay type: biochemical; design: The cDNA of the mature QC starting with codon 38 was fused in frame with the plasmid encoded 6×histidine tag; 6xHis; made in house; host or cells: Pichia pastoris X33 (pPICZαB); also E. coli M15 (pQE-31); settings: 0.5 mM metal ion in presence of 0.5 mM EDTA
T1 sequence (Q16769 29-361): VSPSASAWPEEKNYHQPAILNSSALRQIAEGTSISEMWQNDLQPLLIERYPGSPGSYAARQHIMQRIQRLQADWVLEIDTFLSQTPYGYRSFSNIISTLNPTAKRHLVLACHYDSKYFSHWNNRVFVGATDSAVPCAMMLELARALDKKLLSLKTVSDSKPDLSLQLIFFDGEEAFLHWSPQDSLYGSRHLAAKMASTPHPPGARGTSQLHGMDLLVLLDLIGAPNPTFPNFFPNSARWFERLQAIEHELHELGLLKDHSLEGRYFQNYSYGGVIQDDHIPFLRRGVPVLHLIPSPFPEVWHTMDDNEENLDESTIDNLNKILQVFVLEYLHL
Description: Subsequently, the enzyme was subjected to dialysis against 50 mM Bis-Tris, pH 6.8, containing 1.0 mM EDTA. Reactivation of the enzymes was achieved by incubation of the inactivated enzyme sample with metal ions at a concentration of 0.5 mM, in presence of 0.5 mM EDTA in order to avoid an unspecific reactivation by traces of metal ions present in buffer solutions. Controls are given by enzyme samples that were not inactivated, but also dialyzed against EDTA solution as the inactivated enzyme (+EDTA) and enzyme samples that were dialyzed against buffer solutions without added EDTA (−EDTA).

[2] = target: T1, QC; test: Inhibition and inactivation of human QC by chelators; assay type: biochemical; design: The cDNA of the mature QC starting with codon 38 was fused in frame with the plasmid encoded 6×histidine tag; 6xHis; made in house; host or cells: Pichia pastoris X33 (pPICZαB); also E. coli M15 (pQE-31)
[3] = tested on: Glutaminyl cyclase present in the homogenate of porcine pituitary; test: Formation of [pGlu^3]Aβ3-11a by QC in porcine pituitary homogenate, MALDI-TOF; assay type: biochemical; settings: 2 mM 1,10-phenanthroline
Description: (§1) Matrix-assisted laser desorption/ionization mass spectrometry was carried out using the Hewlett-Packard G2025 LD-TOF System with a linear time of flight analyzer. […] Samples (5 μl) were mixed with equal volumes of the matrix solution. For matrix solution we used DHAP/DAHC, prepared by solving 30 mg 2′,6′-dihydroxyacetophenone (Aldrich) and 44 mg diammonium hydrogen citrate (Fluka) in 1 ml acetonitrile/0.1% TFA in water (1/1, v/v). A small volume (=1 μl) of the matrix-analyte-mixture was transferred to a probe tip and immediately evaporated in a vacuum chamber (Hewlett-Packard G2024A sample prep accessory) to ensure rapid and homogeneous sample crystallization.
In case of Aβ3-21a, the assays contained 1% DMSO. At different times, samples were removed from the assay tube, peptides extracted using ZipTips (Millipore) according to the manufacturer's recommendations, mixed with matrix solution (1:1 v/v) and subsequently the mass spectra recorded.

[4] = tested on: mammalian QC; settings: Busby et al. 1987; cited from earlier work
[5] = tested on: DP IV and QC; test: Consecutive catalysis of DP IV and QC, crude porcine pituitary homogenate with added DPIV, MALDI-TOF; assay type: biochemical
Description: as §1

[6] = Solubility of substrates in aqueous solution

- restoration of QC activity after inactivation [1]: Near-total restoration
Compound: O=S(=O)([O-])[O-].[Zn+2] [ZnSO4]

- inactivation of human QC after extensive dialysis ([2]; dialysis against 5 mM): almost completely inactivated
- inhibition of formation of [pGlu^3]Aβ3-11a from [Gln^3]Aβ3-11a [3]: inhibited; also recorded: inhibition
Compound: c1cnc2c(c1)ccc1cccnc12 [1,10-phenanthroline]
- inhibition of human QC catalyzed substrate cyclization ([2]; competitive and time-dependent for the chelators): inhibited; also recorded: reduced enzymatic activity
- inhibition of a mammalian QC [4]: Inhibition
- [pGlu^3]Aβ3-11a formation from [Gln^3]Aβ1-11a in presence of catalytically active DP IV and QC [5]: not formed; also recorded: inhibition

- solubility in aqueous solution [6]: better
Compound: QFRHDSGYE-NH2 [[Gln^3]Aβ3-11a]

Source: US7381537B2, “Use of inhibitors of glutaminyl cyclases for treatment and prevention of disease” (Probiodrug AG, priority 2003, dated 2008)
